Read-outs that look alike come from different tables or passages of the source.
Columns and labels:
Assay type in all cases: in vivo
[1] = test system: pigweed (Amaranthus retroflexus); test: Test A preemergence; details: Amaranthus retroflexus, pre-emergence, 240 h; for pest or weed control at 125 g/ha: 125 g ai/ha, preemergence, 0 to 100 scale where 0 is no effect and 100 is complete control, read-out: Pigweed plant response rating; for pest or weed control at 500 g/ha: 500 g ai/ha, Preemergence, visual injury vs untreated controls after approximately 10 d, read-out: Pigweed plant response rating (0 to 100 scale where 0 is no effect and 100 is complete control)
[2] = test system: sedge, umbrella (small-flower umbrella sedge, Cyperus difformis); test: Test B flooded paddy test; details: Cyperus difformis, Flood, 250 g ai/ha; scale of 0 to 100 where 0 is no effect and 100 is complete control; read-out: Sedge, Umbrella plant response rating
Procedure, shortened: (§1)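 Visual ratings (0 none to 100 complete control) are relative to untreated plants, taken 13–15 d after treatment in a greenhouse. Test material went straight into floodwater standing 3 cm above the soil, kept constant, on plants at the 2-leaf stage.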

[3] = test system: barnyardgrass (Echinochloa crus-galli); test: Test B flooded paddy test; details: Echinochloa crus-galli, Flood, 250 g ai/ha; scale of 0 to 100 where 0 is no effect and 100 is complete control; read-out: Barnyardgrass plant response rating
Procedure, shortened: as §1

[4] = test system: ducksalad (Heteranthera limosa); test: Test B flooded paddy test; details: Heteranthera limosa, Flood, 250 g ai/ha; scale of 0 to 100 where 0 is no effect and 100 is complete control; read-out: Ducksalad plant response rating
Procedure, shortened: as §1

rice (Oryra sativa) = test: Test B flooded paddy test; details: Oryza sativa, Flood, 250 g ai/ha; scale of 0 to 100 where 0 is no effect and 100 is complete control; read-out: Rice plant response rating
Procedure, shortened: as §1

[5] = test system: blackgrass (Alopecurus myosuroides); test: Test A postemergence; details: Alopecurus myosuroides, post-emergence, 240 h, 125 g ai/ha
Procedure, shortened: (§2)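 Treatment is preemergence as a directed soil spray after planting, or postemergence at the one- to two-leaf stage, with test chemical in a non-phytotoxic solvent mixture plus surfactant. Plants stay in the greenhouse about 10 d before visual injury scoring on a 0 to 100 scale versus untreated controls.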

[6] = test system: barnyardgrass (Echinochloa crus-galli); test: Test A postemergence; details: Echinochloa crus-galli, post-emergence, 240 h, 125 g ai/ha
Procedure, shortened: as §2

[7] = test system: ragweed (common ragweed, Ambrosia elatior); test: Test A postemergence; details: Ambrosia artemisiifolia, post-emergence, 240 h, 125 g ai/ha
Procedure, shortened: as §2

corn (Zea mays) = test: Test A postemergence; details: Zea mays, post-emergence, 240 h, 125 g ai/ha
Procedure, shortened: as §2

[8] = test system: ryegrass, Italian (Italian ryegrass, Lolium multiflorum); test: Test A postemergence; details: Lolium multiflorum, post-emergence, 240 h, 125 g ai/ha
Procedure, shortened: as §2

[9] = test system: Galium (catchweed bedstraw, Galium aparine); test: Test A postemergence; details: Galium, post-emergence, 240 h, 125 g ai/ha
Procedure, shortened: as §2

Kochia (Kochia scoparia) = test: Test A postemergence; details: Bassia scoparia, post-emergence, 240 h, 125 g ai/ha
Procedure, shortened: as §2

[10] = test system: pigweed (Amaranthus retroflexus); test: Test A postemergence; details: Amaranthus retroflexus, post-emergence, 240 h, 125 g ai/ha
Procedure, shortened: as §2

[11] = test system: giant foxtail (Setaria faberii); test: Test A postemergence; details: Setaria faberi, post-emergence, 240 h, 125 g ai/ha
Procedure, shortened: as §2

[12] = test system: wheat (Triticum aestivum); test: Test A postemergence; details: Triticum aestivum, post-emergence, 240 h, 125 g ai/ha
Procedure, shortened: as §2

`CN1C[C@H](c2cccc(OC(F)(F)C(F)F)c2)[C@@H](C(=O)Nc2ccccc2S(C)(=O)=O)C1=O` [Compound 864] gave a pest or weed control at 125 g/ha [1] of 90%, a pest or weed control at 500 g/ha [1] of 90% and a pest or weed control at 250 g/ha [2] of 50%. It also gave a pest or weed control at 250 g/ha [3] of 50%, a pest or weed control at 250 g/ha [4] of 90% and a pest or weed control at 250 g/ha (rice (Oryra sativa)) of 40%. It also gave a pest or weed control at 125 g/ha ([5]; postemergence, visual injury rating after approximately 10 d, read-out: Blackgrass plant response rating (0 to 100 scale, 0 no effect, 100 complete control)) of 50%, a pest or weed control at 125 g/ha ([6]; postemergence, visual injury rating after approximately 10 d, read-out: Barnyardgrass plant response rating (0 to 100 scale, 0 no effect, 100 complete control)) of 90% and a pest or weed control at 125 g/ha ([7]; postemergence, visual injury rating after approximately 10 d, read-out: Ragweed plant response rating (0 to 100 scale, 0 no effect, 100 complete control)) of 0%. The plant injury at 125 g/ha (corn (Zea mays); postemergence, visual injury rating after approximately 10 d, read-out: Corn plant response rating (0 to 100 scale, 0 no effect, 100 complete control)) was 60%, the pest or weed control at 125 g/ha ([8]; postemergence, visual injury rating after approximately 10 d, read-out: Ryegrass, Italian plant response rating (0 to 100 scale, 0 no effect, 100 complete control)) was 50% and the pest or weed control at 125 g/ha ([9]; postemergence, visual injury rating after approximately 10 d, read-out: Galium plant response rating (0 to 100 scale, 0 no effect, 100 complete control)) was 20%. It also gave a pest or weed control at 125 g/ha (Kochia (Kochia scoparia); postemergence, visual injury rating after approximately 10 d, read-out: Kochia plant response rating (0 to 100 scale, 0 no effect, 100 complete control)) of 0%, a pest or weed control at 125 g/ha ([10]; postemergence, visual injury rating after approximately 10 d, read-out: Pigweed plant response rating (0 to 100 scale, 0 no effect, 100 complete control)) of 20% and a pest or weed control at 125 g/ha ([11]; postemergence, visual injury rating after approximately 10 d, read-out: Foxtail, Giant plant response rating (0 to 100 scale, 0 no effect, 100 complete control)) of 70%. It also gave a plant injury at 125 g/ha ([12]; postemergence, visual injury rating after approximately 10 d, read-out: Wheat plant response rating (0 to 100 scale, 0 no effect, 100 complete control)) of 50%.

`CN1CC[C@H](c2cccc(Cl)c2)[C@@H](C(=O)Nc2cccc(Cl)c2F)C1=O` [Compound 924] gave a pest or weed control at 125 g/ha [1] of 0%, a pest or weed control at 500 g/ha [1] of 0% and a pest or weed control at 250 g/ha [2] of 0%. For the same compound, the pest or weed control at 250 g/ha [3] was 50%, the pest or weed control at 250 g/ha [4] was 70% and the pest or weed control at 250 g/ha (rice (Oryra sativa)) was 0%. It also gave a pest or weed control at 125 g/ha ([5]; Postemergence, visual injury after approximately 10 d, 0 to 100 scale where 0 is no effect and 100 is complete control, read-out: Plant response rating, Blackgrass) of 0%, a pest or weed control at 125 g/ha ([6]; Postemergence, visual injury after approximately 10 d, 0 to 100 scale where 0 is no effect and 100 is complete control, read-out: Plant response rating, Barnyardgrass) of 90% and a pest or weed control at 125 g/ha ([7]; Postemergence, visual injury after approximately 10 d, 0 to 100 scale where 0 is no effect and 100 is complete control, read-out: Plant response rating, Ragweed) of 0%. It also gave a Corn plant response rating (crop injury, 0 = no effect, 100 = complete kill) at 125 g/ha (corn (Zea mays); Postemergence, visual injury after approximately 10 d, 0 to 100 scale where 0 is no effect and 100 is complete control) of 0%, a pest or weed control at 125 g/ha ([8]; Postemergence, visual injury after approximately 10 d, 0 to 100 scale where 0 is no effect and 100 is complete control, read-out: Plant response rating, Ryegrass, Italian) of 0% and a pest or weed control at 125 g/ha ([9]; Postemergence, visual injury after approximately 10 d, 0 to 100 scale where 0 is no effect and 100 is complete control, read-out: Plant response rating, Galium) of 0%. For the same compound, the pest or weed control at 125 g/ha (Kochia (Kochia scoparia); Postemergence, visual injury after approximately 10 d, 0 to 100 scale where 0 is no effect and 100 is complete control, read-out: Plant response rating, Kochia) was 0%, the pest or weed control at 125 g/ha ([10]; Postemergence, visual injury after approximately 10 d, 0 to 100 scale where 0 is no effect and 100 is complete control, read-out: Plant response rating, Pigweed) was 0% and the pest or weed control at 125 g/ha ([11]; Postemergence, visual injury after approximately 10 d, 0 to 100 scale where 0 is no effect and 100 is complete control, read-out: Plant response rating, Foxtail, Giant) was 90%. It also gave a plant injury at 125 g/ha ([12]; Postemergence, visual injury after approximately 10 d, 0 to 100 scale where 0 is no effect and 100 is complete control, read-out: Plant response rating, Wheat) of 0%.
